From patent US12629374B2, “Antimalarial agents” (Merck Sharp & Dohme LLC, priority 2020, dated 2026)

Each compound was assayed on ring stage parasites (assay: Parasite growth potency assay, 72 hours, LDH readout). Conditions: 72 h, parasite growth measured by LDH assay after 72 hours at 37° C.; 0.7% rings, 2% haematocrit; read-out: EC50.
Assay type: cell-based
Method in brief: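 Parasite growth was quantified by LDH assay after a −80 °C freeze-thaw. Before that, compound was incubated for 72 h at 37 °C under humidified gas with ring-stage cultures adjusted to 0.7% parasitemia and 2% haematocrit in serum- and albumax-supplemented RPMI-Hepes.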
Work on `CCC1(CC)CC(=O)N([C@H](c2ccc(S(C)(=O)=O)cc2)c2cccc(C(=O)N[C@H]3CC(C)(C)Oc4ccccc43)c2)C(=N)N1` [Example 115A, [1-[[3-[[(4S)-2,2-dimethylchroman-4-yl]carbamoyl]phenyl]-(4-methylsulfonylphenyl)methyl]-4,4-diethyl-6-oxo-hexahydropyrimidin-2-ylidene]ammonium; 2,2,2-trifluoroacetate] yielded an EC50 of 1 nM. `CCC1(CC)CC(=O)N([C@@H](c2ccc(S(C)(=O)=O)cc2)c2cccc(C(=O)N[C@H]3CC(C)(C)Oc4ccccc43)c2)C(=N)N1` [Example 115B, [1-[[3-[[(4S)-2,2-dimethylchroman-4-yl]carbamoyl]phenyl]-(4-methylsulfonylphenyl)methyl]-4,4-diethyl-6-oxo-hexahydropyrimidin-2-ylidene]ammonium; 2,2,2-trifluoroacetate] gave an EC50 of 4.4 nM. `CCC1(CC)CC(=O)N([C@H](c2ccc(S(C)(=O)=O)cc2)c2cccc(C(=O)N[C@@H]3c4ccccc4C[C@H]3O)c2)C(=N)N1` [Example 116, [4,4-diethyl-1-[[3-[[(1R,2R)-2-hydroxyindan-1-yl]carbamoyl]phenyl]-(4-methylsulfonylphenyl)methyl]-6-oxo-hexahydropyrimidin-2-ylidene]ammonium; chloride] was tested, and the EC50 was 6.8 nM. Compound `CCC12CCCCCCCC3CC(NC(=O)c4cccc(c4)CN(C(=N)N1)C(=O)C2)c1ccccc1O3` (stereo not shown) [Example 118, (26-ethyl-8,29-dioxo-17-oxa-1,9,27-triazapentacyclo[24.2.2.13,7.110,18. 011,16]dotriaconta-3,5,7(32),11(16),12,14-hexaen-28-ylidene)ammonium; 2,2,2-trifluoroacetate] has an EC50 of 56.5 nM. `CCC[C@H](c1cccc(C(=O)N[C@@H]2c3ccccc3OC(C)(C)[C@H]2O)c1)N1C(=N)NC(CC)(CC)CC1=O` [Example 119A, [4,4-diethyl-1-[(1R)-1-[3-[(3-hydroxy-2,2-dimethyl-chroman-4-yl)carbamoyl]phenyl]butyl]-6-oxo-hexahydropyrimidin-2-ylidene]ammonium; 2,2,2-trifluoroacetate] showed an EC50 of 0.5 nM. For `CCC[C@H](c1cccc(C(=O)N[C@H]2c3ccccc3OC(C)(C)[C@@H]2O)c1)N1C(=N)NC(CC)(CC)CC1=O` [Example 119B, [4,4-diethyl-1-[(1R)-1-[3-[(3-hydroxy-2,2-dimethyl-chroman-4-yl)carbamoyl]phenyl]butyl]-6-oxo-hexahydropyrimidin-2-ylidene]ammonium; 2,2,2-trifluoroacetate], the EC50 was 34 nM. `CCC[C@H](c1cccc(C(=O)N[C@@H]2c3ccccc3CC2(C)O)c1)N1C(=N)NC(CC)(CC)CC1=O` (stereo partly drawn) [Example 122A, 3-[(1R)-1-(4,4-diethyl-2-imino-6-oxo-hexahydropyrimidin-1-yl)butyl]-N-(2-hydroxy-2-methyl-indan-1-yl)benzamide] gave an EC50 of 1.2 nM. Work on `CCC1(CC)CC(=O)N([C@@H](c2cccc(C(=O)N[C@H]3CCOc4ccccc43)c2)c2cccc(S(C)(=O)=O)c2)C(=N)N1` [Example 123A, [1-[[3-[[(4S)-chroman-4-yl]carbamoyl]phenyl]-(3-methylsulfonylphenyl)methyl]-4,4-diethyl-6-oxo-hexahydropyrimidin-2-ylidene]ammonium; 2,2,2-trifluoroacetate] yielded an EC50 of 1.9 nM. With `CCC1(CC)CC(=O)N([C@H](c2cccc(C(=O)N[C@H]3CCOc4ccccc43)c2)c2cccc(S(C)(=O)=O)c2)C(=N)N1` [Example 123B, [1-[[3-[[(4S)-chroman-4-yl]carbamoyl]phenyl]-(3-methylsulfonylphenyl)methyl]-4,4-diethyl-6-oxo-hexahydropyrimidin-2-ylidene]ammonium; 2,2,2-trifluoroacetate] the EC50 was 9.3 nM. `CCC1(CC)CC(=O)N([C@@H](c2cccc(C(=O)N[C@@H]3c4ccccc4C[C@H]3O)c2)c2cccc(S(C)(=O)=O)c2)C(=N)N1` [Example 124A, [4,4-diethyl-1-[[3-[[(1R,2R)-2-hydroxyindan-1-yl]carbamoyl]phenyl]-(3-methylsulfonylphenyl)methyl]-6-oxo-hexahydropyrimidin-2-ylidene]ammonium; 2,2,2-trifluoroacetate] gave an EC50 of 9.9 nM. `CCC1(CC)CC(=O)N([C@H](c2cccc(C(=O)N[C@@H]3c4ccccc4C[C@H]3O)c2)c2cccc(S(C)(=O)=O)c2)C(=N)N1` [Example 124B, [4,4-diethyl-1-[[3-[[(1R,2R)-2-hydroxyindan-1-yl]carbamoyl]phenyl]-(3-methylsulfonylphenyl)methyl]-6-oxo-hexahydropyrimidin-2-ylidene]ammonium; 2,2,2-trifluoroacetate] gave an EC50 of 53 nM. `CCC1(CC)CC(=O)N([C@H](CCOC)c2cncc(C(=O)N[C@@H]3c4ccccc4C[C@H]3O)c2)C(=N)N1` [Example 125, [4,4-diethyl-1-[1-[5-[[(1R,2R)-2-hydroxyindan-1-yl]carbamoyl]pyridin-1-ium-3-yl]-3-methoxy-propyl]-6-oxo-hexahydropyrimidin-2-ylidene]ammonium; 2,2,2-trifluoroacetate] showed an EC50 of 2.7 nM. `CCC[C@H](c1cccc(C(=O)N[C@H]2c3ccccc3OCC2O)c1)N1C(=N)NC(CC)(CC)CC1=O` (stereo partly drawn) [Example 127A, 3-[(1R)-1-(4,4-diethyl-2-imino-6-oxo-hexahydropyrimidin-1-yl)butyl]-N-(3-hydroxychroman-4-yl)benzamide] gave an EC50 of 97.4 nM. `CCC[C@H](c1cccc(C(=O)N[C@@H]2c3ccccc3OCC2O)c1)N1C(=N)NC(CC)(CC)CC1=O` (stereo partly drawn) [Example 127D, 3-[(1R)-1-(4,4-diethyl-2-imino-6-oxo-hexahydropyrimidin-1-yl)butyl]-N-(3-hydroxychroman-4-yl)benzamide] was tested, and the EC50 was 1.2 nM. Work on `COCC[C@H](c1cncc(C(=O)N[C@@H]2c3ccccc3C[C@H]2O)c1)N1C(=N)N[C@](C)(C(C)C)CC1=O` [Example 130, [(4S)-1-[1-[5-[[(1R,2R)-2-hydroxyindan-1-yl]carbamoyl]pyridin-1-ium-3-yl]-3-methoxy-propyl]-4-isopropyl-4-methyl-6-oxo-hexahydropyrimidin-2-ylidene]ammonium; 2,2,2-trifluoroacetate] yielded an EC50 of 18.8 nM. For `CCC1(CC)CC(=O)N([C@@H](CCOC)c2cccc(C(=O)N[C@H]3C[C@H](C(F)(F)F)Oc4ccccc43)c2)C(=N)N1` [Example 132A, [[(2R,4S)-2-(trifluoromethyl)chroman-4-yl]carbamoyl]phenyl]propyl]-6-oxo-hexahydropyrimidin-2-ylidene]ammonium; 2,2,2-trifluoroacetate], the EC50 was 59 nM. In the case of `CCC1(CC)CC(=O)N([C@H](CCOC)c2cccc(C(=O)N[C@H]3C[C@H](C(F)(F)F)Oc4ccccc43)c2)C(=N)N1` [Example 132B, [4,4-diethyl-1-[3-methoxy-1-[3-[[(2R,4S)-2-(trifluoromethyl)chroman-4-yl]carbamoyl]phenyl]propyl]-6-oxo-hexahydropyrimidin-2-ylidene]ammonium; 2,2,2-trifluoroacetate], the EC50 is reported as 0.9 nM. Work on `CCC1(CC)CC(=O)N(Cc2cc(C(=O)N[C@H]3C[C@H](C(F)(F)F)Oc4ccccc43)ccn2)C(=N)N1` [Example 134, [4,4-diethyl-6-oxo-1-[[4-[[(2R,4S)-2-(trifluoromethyl)chroman-4-yl]carbamoyl]pyridin-1-ium-2-yl]methyl]hexahydropyrimidin-2-ylidene]ammonium; 2,2,2-trifluoroacetate] yielded an EC50 of 8.6 nM. `CCC1(CC)CC(=O)N([C@H](CCN2CCOCC2)c2cccc(C(=O)N[C@H]3CC(C)(C)Oc4ccccc43)c2)C(=N)N1` [Example 135, [1-[1-[3-[[(4S)-2,2-dimethylchroman-4-yl]carbamoyl]phenyl]-3-morpholin-4-ium-4-yl-propyl]-4,4-diethyl-6-oxo-hexahydropyrimidin-2-ylidene]ammonium; 2,2,2-trifluoroacetate] was tested, and the EC50 was 1 nM. Work on `CCC1(CC)CC(=O)N([C@H](CCN2CCOCC2)c2cccc(C(=O)N[C@H]3C[C@H](C(F)(F)F)Oc4ccccc43)c2)C(=N)N1` [Example 136, [4,4-diethyl-1-[3-morpholin-4-ium-4-yl-1-[3-[[(2R,4S)-2-(trifluoromethyl)chroman-4-yl]carbamoyl]phenyl]propyl]-6-oxo-hexahydropyrimidin-2-ylidene]ammonium; 2,2,2-trifluoroacetate] yielded an EC50 of 1.3 nM. Work on `CCC1(CC)CC(=O)N([C@H](CCOC)c2cc(F)cc(C(=O)N[C@@H]3c4ccccc4C[C@H]3O)c2)C(=N)N1` [Example 138, [4,4-diethyl-1-[1-[3-fluoro-5-[[(1R,2R)-2-hydroxyindan-1-yl]carbamoyl]phenyl]-3-methoxy-propyl]-6-oxo-hexahydropyrimidin-2-ylidene]ammonium; 2,2,2-trifluoroacetate] yielded an EC50 of 2.7 nM. `CCC1(CC)CC(=O)N([C@H](COCCOC)c2cccc(C(=O)N[C@@H]3c4ccccc4OC(C)(C)[C@H]3O)c2)C(=N)N1` [Example 139, [4,4-diethyl-1-[(1S)-1-[3-[[(3S,4R)-3-hydroxy-2,2-dimethyl-chroman-4-yl]carbamoyl]phenyl]-2-(2-methoxyethoxy)ethyl]-6-oxo-hexahydropyrimidin-2-ylidene]ammonium; 2,2,2-trifluoroacetate] was tested, and the EC50 was 1.5 nM. `CCC1(CC)CC(=O)N([C@H](COCCOC)c2cccc(C(=O)N[C@@H]3c4ccccc4C[C@H]3O)c2)C(=N)N1` [Example 140, [4,4-diethyl-1-[(1S)-1-[3-[[(1R,2R)-2-hydroxyindan-1-yl]carbamoyl]phenyl]-2-(2-methoxyethoxy)ethyl]-6-oxo-hexahydropyrimidin-2-ylidene]ammonium; 2,2,2-trifluoroacetate] was tested, and the EC50 was 3.2 nM.

Same assay, conditions: parasite growth measured by LDH assay after 72 hours at 37° C.; 0.7% rings, 2% haematocrit; read-out: EC50
Compound `CCC[C@H](c1cccc(C(=O)N[C@@H]2c3ccccc3CC2(C)O)c1)N1C(=N)NC(CC)(CC)CC1=O` (stereo partly drawn) [Example 122D, 3-[(1R)-1-(4,4-diethyl-2-imino-6-oxo-hexahydropyrimidin-1-yl)butyl]-N-(2-hydroxy-2-methyl-indan-1-yl)benzamide] has an EC50 of 0.6 nM. With `CCC[C@H](c1cccc(C(=O)N[C@H]2c3ccccc3OCC2O)c1)N1C(=N)NC(CC)(CC)CC1=O` (stereo partly drawn) [Example 127C, 3-[(1R)-1-(4,4-diethyl-2-imino-6-oxo-hexahydropyrimidin-1-yl)butyl]-N-(3-hydroxychroman-4-yl)benzamide] the EC50 was 53.8 nM.
